Data reported in US20240319212A1, “METHOD OF MEASURING THE ENDOCYTIC VITAMIN D STATUS” (Immundiagnostik AG, priority 2018, published 2024).
pKd: −log10 of the molar value. Entries after “also recorded” stand apart in the source; their conditions may differ.

How the values were obtained:
albumin = albumin (Homo sapiens, UniProt P02768); conditions: cited from earlier work
DBP [1] = target: T1, DBP (Homo sapiens, UniProt P02774); conditions: cited from earlier work
T1 sequence (P02774 17-474): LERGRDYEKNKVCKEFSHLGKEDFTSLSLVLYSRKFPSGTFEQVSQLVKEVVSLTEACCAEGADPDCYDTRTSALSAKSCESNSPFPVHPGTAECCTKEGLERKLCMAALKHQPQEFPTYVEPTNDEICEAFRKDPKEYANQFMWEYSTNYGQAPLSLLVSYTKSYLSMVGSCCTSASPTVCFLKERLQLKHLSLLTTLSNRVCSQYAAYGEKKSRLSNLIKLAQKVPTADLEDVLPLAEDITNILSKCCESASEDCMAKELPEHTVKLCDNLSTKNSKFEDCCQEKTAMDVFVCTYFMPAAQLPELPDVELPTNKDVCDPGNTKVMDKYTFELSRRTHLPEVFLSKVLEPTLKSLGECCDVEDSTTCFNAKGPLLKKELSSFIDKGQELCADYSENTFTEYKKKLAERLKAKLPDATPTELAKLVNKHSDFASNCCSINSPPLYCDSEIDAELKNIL

megalin M2 fragment = target: T2, megalin M2 fragment (Homo sapiens, UniProt P02774+P98164); assay: Microscale thermophoresis of DBP:VD-metabolite bound by megalin M2 fragment; type: binding; conditions: M2 titrated; for pKd: labelled DBP 50 nM mixed with metabolite 37.8 nM, read-out: dissociation constant Kd, megalin M2 fragment to complex DBP:vitamin D metabolite
T2 construct: megalin signal peptide (M1-G25) (N, cleaved yes); made in house
T2 sequence (P98164 1024-1429 limits assumed): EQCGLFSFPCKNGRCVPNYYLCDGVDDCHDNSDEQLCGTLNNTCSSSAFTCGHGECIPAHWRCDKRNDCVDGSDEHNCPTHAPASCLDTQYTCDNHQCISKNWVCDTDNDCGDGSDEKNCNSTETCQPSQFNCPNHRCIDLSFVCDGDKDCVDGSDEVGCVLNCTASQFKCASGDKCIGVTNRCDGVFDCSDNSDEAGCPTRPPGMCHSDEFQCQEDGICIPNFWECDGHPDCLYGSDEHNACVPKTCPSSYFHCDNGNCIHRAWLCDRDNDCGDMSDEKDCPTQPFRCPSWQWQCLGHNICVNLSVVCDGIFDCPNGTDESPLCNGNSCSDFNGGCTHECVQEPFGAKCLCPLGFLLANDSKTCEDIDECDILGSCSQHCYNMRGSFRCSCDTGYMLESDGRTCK
T2 sequence (P02774 17-474): T1 sequence (P02774 17-474)
Experimental: Purified megalin M2 was titrated in different concentrations. The dissociation constant Kd was calculated for every condition. The binding affinity was assessed by the dissociation constant Kd.
(§1) Microscale Thermophoresis assay. […] Parameters: laser power, 100%; LED, 80; laser on-time, 30 seconds; laser off-time, 5 seconds; temperature, 25° C. FNorm: normalized fluorescence; Kd: dissociation constant.

DBP [2] = target: T1, DBP; assay: Microscale thermophoresis of DBP and vitamin D metabolites; type: binding; parameters: purchased Merck 345802; conditions: for binding affinity of vitamin D metabolite to DBP, in words: MST, comparison between metabolites; for pKd: NT-647 labelled DBP, metabolite titrated, read-out: dissociation constant Kd, DBP to vitamin D metabolite
Experimental: The binding properties of DBP and 25(OH)VD3, 25(OH)VD2, 24,25(OH)VD and 3C-epimer of 25(OH)D3 on the one hand and megalin on the other was further examined using microscale thermophoresis. […] The vitamin D metabolites were titrated with different concentrations. The dissociation constant Kd was calculated for every interaction partner. The binding affinity was assessed via the obtained dissociation constant Kd.
as §1

Chain of albumin (P02768 25-609, species assumed): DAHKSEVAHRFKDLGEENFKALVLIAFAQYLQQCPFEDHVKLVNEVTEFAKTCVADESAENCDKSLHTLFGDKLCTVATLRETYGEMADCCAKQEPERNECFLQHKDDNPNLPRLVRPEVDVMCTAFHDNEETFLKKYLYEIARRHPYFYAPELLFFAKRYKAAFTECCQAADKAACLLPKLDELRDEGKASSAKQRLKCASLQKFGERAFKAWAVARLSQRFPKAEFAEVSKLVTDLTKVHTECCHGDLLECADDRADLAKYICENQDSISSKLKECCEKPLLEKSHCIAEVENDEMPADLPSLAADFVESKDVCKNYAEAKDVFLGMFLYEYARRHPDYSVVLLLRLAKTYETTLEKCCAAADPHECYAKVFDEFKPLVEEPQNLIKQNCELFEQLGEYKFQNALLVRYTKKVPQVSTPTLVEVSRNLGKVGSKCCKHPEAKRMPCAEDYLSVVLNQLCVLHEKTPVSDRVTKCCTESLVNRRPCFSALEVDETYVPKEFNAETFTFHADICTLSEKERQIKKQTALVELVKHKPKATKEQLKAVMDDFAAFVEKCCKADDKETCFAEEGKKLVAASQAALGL

Compound | binding affinity of vitamin D metabolite to DBP, in words (DBP [2]) | pKd (megalin M2 fragment) | pKd (DBP [2]) | also measured
25-hydroxyvitamin D [25(OH)D] |  |  |  | affinity Ka for albumin (albumin): 600000 M⁻¹; affinity Ka for DBP (DBP [1]): 7e+08 M⁻¹
C=C1CC[C@@H](O)C/C1=C/C=C1\CCC[C@]2(C)[C@@H]([C@H](C)CCCC(C)(C)O)CC[C@@H]12 [3C-epi25(OH)VD3, C3-epimer of 25-hydroxyvitamin D3] | bound most strongly |  |  | affinity of megalin M2 to DBP:metabolite complex, in words (megalin M2 fragment; labelled DBP 50 nM mixed with metabolite): very high affinity; binding affinity of vitamin D metabolite to DBP, in words (DBP [2]; listed as 3C epimer of 25(OH)D3): high binding affinity
C=C1CC[C@H](O)C/C1=C/C=C1\CCC[C@]2(C)[C@@H]([C@H](C)CCC(O)C(C)(C)O)CC[C@@H]12 (stereo partly drawn) [24,25(OH)VD, 24,25-dihydroxyvitamin D] | slightly weaker; also recorded: marginally lower | 6.77 |  | 
C=C1CC[C@H](O)C/C1=C/C=C1\CCC[C@]2(C)[C@@H]([C@H](C)/C=C/[C@H](C)C(C)(C)O)CC[C@@H]12 [25(OH)VD2, 25-hydroxyvitamin D2] | comparable to Kd of DBP-VD3 | 6.80 | 8.55 | 
C=C1CC[C@H](O)C/C1=C/C=C1\CCC[C@]2(C)[C@@H]([C@H](C)CCCC(C)(C)O)CC[C@@H]12 [25(OH)VD3, 25-hydroxyvitamin D3] |  | 7.47 | 8.73 | 
